Results taken from patent US20070010548A1, “Compounds having inhibitive activity of phosphatidylinositol 3-kinase and methods of use thereof” (ZENTARIS GmbH, priority 2003, published 2007).
Like-named read-outs stand apart in the source and are kept apart here.

Columns and labels:
[1] = tested on: tumor cells altered in PI 3-K/PTEN; test: Cellular growth inhibition assays on tumor cells altered in PI 3-K/PTEN; format: cell-based; conditions: for IC50: approximate, read-out: Approx. mIC50 in cellular assays
Description: (§1) The ovarian cancer cell line SKOV3 is not altered in PI 3-K signaling and should be less sensitive to the anti-proliferative effects produced by treatment with PI 3-K inhibitors, while the OVCAR3 cell line, which is altered in PI 3-K signaling, via amplification of PI 3-K activity, should be sensitive. SKOV3 cells were seeded in 96-well cell culture plates (Greiner) at a density of 20,000 cells per well in McCoys 5A media (GibcoBRL) with 10% fetal calf serum and 20 mM L-glutamine. OVCAR3 cells were seeded at a density of 15,000 cells per well in RPMI 1640 media (GibcoBRL) containing 20 mM 1-glutamine, 0.01 ng/ml bovine insulin, 10 mM Hepes pH 7.4, 1 mM sodium pyruvate, 2.5 g/L glucose, and 20% fetal calf serum. After 24 hours, compounds were added to cell media to a final concentration of 1 μM, and the cells were grown in the presence of the compounds for 48 hours, in media containing 0.5% fetal calf serum. Viability was determined using a MTT cell proliferation assay (R and D Systems) and comparison to DMSO alone controls (100% viability). Compounds which result in reduced viability may act either by inhibiting cell proliferation or by inducing apoptosis (programmed cell death).
Selected compounds were evaluated against paired ovarian cancer cell lines at a range of concentrations to determine effective concentrations for growth inhibition.
MDA-MB-468 and MDA-MB-231 cells were seeded in 96-well cell culture plates (Greiner) at a density of 20,000 cells per well in RMPI media (GibcoBRL) with 10% fetal calf serum and 20 mM L-glutamine. After 24 hours, compounds were added to cell media to a final concentrations ranging from 10 nM to 100 μM, and the cells were grown in the presence of the compounds for 48 hours in RMPI media containing 0.5% fetal calf serum and 20 mM L-glutamine. Viability was determined using a MTT cell proliferation assay (R and D Systems) and comparison to DMSO alone controls (100% viability). Compounds which result in reduced viability may act either by inhibiting cell proliferation or by inducing apoptosis (programmed cell death). […] Selected compounds were evaluated against the paired breast cancer cell lines at a range of concentrations to determine effective concentrations for growth inhibition.
Table 3 summarizes the data for several compounds of this structural group, including the IC50 for inhibition of enzyme activity in vitro, cellular mIC50 and anti-proliferative activity against tumor cells altered in PI 3-K mediated signaling, and effects on cellular levels of phospho-Akt.

[2] = tested on: OVCAR3 cells; test: MTT cell proliferation/viability assay, OVCAR3 ovarian cancer cells; format: cell-based; conditions: Homo sapiens
Description: as §1
(§2) Many of these also show similar selective effects on cell growth. Table 2 summarizes the results of two separate cell proliferation experiments for selected compounds of the present invention.

[3] = tested on: SKOV3 cells; test: MTT cell proliferation/viability assay, SKOV3 ovarian cancer cells; format: cell-based; conditions: Homo sapiens
Description: as §1, §2

[4] = tested on: MA-MB-468 cells; test: Three dimensional matrix model of tumor cell growth; format: cell-based; conditions: Homo sapiens, read-out: Percent Inhibition of Tumor Cell Viability
Description: PI 3-K inhibitors are assayed for effects on tumor cells grown in three-dimensional matrix that more closely mimics the environment of a tumor than other cell culture models. MA-MB-468 cells are mixed in a matrix solution, such as Matrigel (13D Biosciences) at 2×10 ^6 cells/ml and 100 μl of this mixture added to each well of a 24 well cell culture plate. Each well is 6.5 mm in diameter and 2×10^5 cells are added per well. Once the matrix is solidified, RMPI media containing 10% fetal calf serum and 2 mM L-glutamine is added to each well. After approximately 14 days of culture, the compounds are added to cell media at final concentrations ranging from 10 nM to 100 μM, and the cells are grown in the presence of the compounds for 7 days in RMPI media containing 0.5% fetal calf serum and 20 mM L-glutamine.
Following this treatment, cell growth in the three dimensional matrix can be measured using a cell viability assay such as the CellTiter 96 One Solution Cell Proliferation Assay (Promega, G3582). […] of assay solution is added per well, the cells are incubated for 3 hours. Absorbance at 550 nm is determined for each well and used directly as being equivalent of cell number. In addition, live and dead cells can be distinguished and observed using fluorescence microscopy after staining with Fluorescein diacetate (Sigma), which labels live cells, and propidium iodide (Sigma), which labels dead cells.
The PI 3-K inhibitors of the present invention show anti-proliferative effects in this model of tumor cell growth, as shown by the representative data in Table 6, which compares the anti-proliferative effects of one inhibitor compared to the effects of the benchmark PI 3-K inhibitor LY294002. The PI 3-K inhibitors of the present invention also show enhanced anti-proliferative activity when combined with other cancer drugs, for example paclitaxel or doxorubicin.

[5] = tested on: PI 3-K; conditions: background literature; read-out: IC50 (inhibits PI 3-K); cited from earlier work
[6] = OVCAR-3, 48 hours, MTT, DMSO alone controls = 100% viability, Trial 1, read-out: Trial 1 OVCAR3 (viability)
[7] = OVCAR-3, 48 hours, MTT, DMSO alone controls = 100% viability, Trial 2, read-out: Trial 2 OVCAR3 (viability)
[8] = OVCAR-3, average of Trial 1 and Trial 2, 48 hours, read-out: average OVCAR-3 (viability)
[9] = SK-OV-3, 48 hours, MTT, DMSO alone controls = 100% viability, Trial 1, read-out: Trial 1 SKOV-3 (viability)
[10] = SK-OV-3, 48 hours, MTT, DMSO alone controls = 100% viability, Trial 2, read-out: Trial 2 SKOV-3 (viability)
[11] = SK-OV-3, average of Trial 1 and Trial 2, 48 hours, read-out: Average SKOV3 (viability)

| Compound | Anti-proliferative effects on tumor cells altered in PI 3-K/PTEN [1] | IC50 [1] [µM] | viability at 1 µM [2, 6] [%] | viability at 1 µM [2, 7] [%] | viability at 1 µM [2, 8] [%] | viability at 1 µM [3, 9] [%] | viability at 1 µM [3, 10] [%] | viability at 1 µM [3, 11] [%] | cytotoxicity at 1 µM ([4]; Concentration 1 μM) [%] | cytotoxicity at 5 µM ([4]; Concentration 5 μM) [%] | cytotoxicity at 10 µM ([4]; Concentration 10 μM) [%] | cytotoxicity at 50 µM ([4]; Concentration 50 μM) [%] | IC50 [5] [µM] |
| --- | --- | --- | --- | --- | --- | --- | --- | --- | --- | --- | --- | --- | --- |
| CC1(C)CC(=O)C2=C(C1)Nc1c(c(-c3ccccc3)nn1-c1ccc(F)cc1)C2c1ccc(C(C)(C)C)cc1 (stereo not drawn) [Compound 963924] | Yes | < 20 | 61 | 66.4 | 63.7 | 100 | 100 | 100 | – | – | – | – | – |
| CCOc1ccc(C2C3=C(CC(C)(C)CC3=O)Nc3c2c(C(C)(C)C)nn3C(C)(C)C)cc1 (stereo not drawn) [Compound 963977] | – | – | 41 | 59.6 | 50.3 | 98 | 81.7 | 89.8 | – | – | – | – | – |
| CCOc1ccc(C2C3=C(CC(C)(C)CC3=O)Nc3c2c(C(C)(C)C)nn3-c2ccc(Cl)cc2)cc1 (stereo not drawn) [Compound 964127] | Yes | < 20 | 42 | 76.2 | 59.1 | 100 | 100 | 100 | – | – | – | – | – |
| COc1cc(OC)cc(C2C3=C(CC(C)(C)CC3=O)Nc3c2c(C(C)(C)C)nn3-c2ccc(Cl)cc2)c1 (stereo not drawn) [Compound 964144] | Yes | < 20 | 54 | 66.2 | 60.1 | 100 | 100 | 100 | – | – | – | – | – |
| Cc1cccc(-n2nc(C(C)(C)C)c3c2NC2=C(C(=O)CC(C)(C)C2)C3c2ccc(C(C)(C)C)cc2)c1C (stereo not drawn) [Compound 964336] | Yes | < 20 | 32 | 56 | 44 | 96 | 83 | 89.5 | – | – | – | – | – |
| Cc1ccc(C2C3=C(CC(C)(C)CC3=O)Nc3c2c(C(C)(C)C)nn3-c2cccc(F)c2)cc1 (stereo not drawn) [Compound 964352] | Yes | < 20 | 33 | 52.9 | 43 | 93 | 74 | 83.5 | – | – | – | – | – |
| O=c1cc(N2CCOCC2)oc2c(-c3ccccc3)cccc12 [LY294002, reference compound] | – | – | – | – | – | – | – | – | < 5 | 50 | 60 | 90 | – |
| O=c1c(O)c(-c2ccc(O)c(O)c2)oc2cc(O)cc(O)c12 [quercetin] | – | – | – | – | – | – | – | – | – | – | – | – | 3.8 |
